# Measured values: patent US6099822A, “Imaging methods and compositions” (priority 1998, dated 2000)
# Assays:
# [1] = test system: Chinese hamster ovary cells; conditions: in words; cited from earlier work
# [2] = test system: MX-1 human breast tumor xenografts; experiment: Autoradiographic biodistribution of Tc-99m-TG and C14-DG in nude mice bearing MX-1 tumors; format: in vivo; conditions: MX-1, center of the tumors, in words
# Method: 3 mCi (111 MBq) of Tc-99m-5TG and 5 μCi (185 kBq) of C^14 -DG were injected at the same time into the tail vein of the mice. Autoradiogram sections including the tumors and vital organs of the mice were obtained at 20 minutes, 1 hour, and 3 hours post injection and developed using simultaneous Tc-99m and C^14 exposures of the same sections.
Compound,Exclusion by hypoxic cells [1],Distribution within tumor [2]
O=C([O-])CN(CCN(CC(=O)[O-])CC(=O)[O-])CCN(CC(=O)[O-])CC(=O)[O-].[99Tc+4] [Tc-99m-DTPA],exclusion of Tc-99m-DTPA by hypoxic cells,
C^14 -2-deoxyglucose [C^14 -DG],,decreased activity in this central area
